Measured values taken from US20090042883A1, “ANTITUMOR AGENT” (KYOWA HAKKOKOGYO CO., priority 2005, published 2009).

Columns and labels:
Type in all cases: cell-based
[1] = test system: human chronic myelocytic leukemia K562 cells; experiment: Growth inhibition test on human chronic myelocytic leukemia K562 cells (WST-1, % viability); conditions: test compound 10 μmol/L, 72 hours, cells without test compound = 100%
Procedure: One thousand cells of human chronic myelocytic leukemia K562 were inoculated into each well of a 96-well microplate (manufactured by Nunc Corp.), and using RPMI1640 medium (culture medium) containing 10% fetal calf serum (FCS), preculturing was performed in a 5% carbon dioxide incubator at 37° C. for 24 hours. A dimethyl sulfoxide (DMSO) solution of each test compound prepared in a concentration of 10 mmol/L was diluted with the culture medium to a final concentration of 10 μmol/L, and the diluted solution was added to each well. The individual wells were further cultured in the 5% carbon dioxide incubator at 37° C. for 72 hours. After completion of the culturing, 10 μL of WST-1 {4-[3-(4-Iodophenyl)-2-(4-nitrophenyl)-2H-5-tetrazolio]-1,3-benzene disulfonate} labeled mixture (manufactured by Roche Diagnostic Corp.) was added to each well, and culturing was performed in the 5% carbon dioxide incubator at 37° C. for 2 hours. Using a microplate spectrophotometer (SpectraMax 340PC384; manufactured by Nihon Molecular Devices), the absorbance of each well was measured at 450 nm and 655 nm. The value obtained by subtracting the absorbance at 450 nm from the absorbance at 655 nm (absorbance difference) was calculated for each well. The value for cells not incorporated with a test compound was designated as 100%, and the value at a well not containing cells was designated as 0%. By comparing these values with the absorbance difference obtained at the well in which each test compound was added, the cell viability (% viability) after treatment with the test compound was calculated.

[2] = test system: human T-cell lymphoma Karpas-299 cells; experiment: Growth inhibition test on human T-cell lymphoma Karpas-299 cells (WST-1, % viability); conditions: test compound 10 μmol/L, 72 hours, cells without test compound = 100%
Procedure: (§1) Five thousand cells of human T-cell lymphoma Karpas-299 were inoculated into each well of a 96-well microplate (manufactured by Nunc Corp.), and using RPMI medium (culture medium) containing 10% FCS, preculturing was performed in a 5% carbon dioxide incubator at 37° C. for 5 hours. A DMSO solution of each test compound prepared in a concentration of 10 mmol/L was diluted with the culture medium to a final concentration of 10 μmol/L, and the diluted solution was added to each well. The individual wells were further cultured in the 5% carbon dioxide incubator at 37° C. for 72 hours. After completion of the culturing, 10 μL of WST-1 labeled mixture (manufactured by Roche Diagnostic Corp.) was added to each well, and culturing was performed in the 5% carbon dioxide incubator at 37° C. for 2 hours. Using a microplate spectrophotometer (SpectraMax 340PC384; manufactured by Nihon Molecular Devices), the absorbance of each well was measured at 450 nm and 655 nm. The value obtained by subtracting the absorbance at 450 nm from the absorbance at 655 nm (absorbance difference) was calculated for each well. The value for cells not incorporated with a test compound was designated as 100%, and the value at a well not containing cells was designated as 0%. By comparing these values with the absorbance difference obtained at the well in which each test compound was added, the cell viability (% viability) after treatment with the test compound was calculated.

[3] = test system: human mammary cancer BT-474 cells; experiment: Growth inhibition test on human mammary cancer BT-474 cells (WST-1, % viability); conditions: test compound 10 μmol/L, cells without test compound = 100%
Procedure: as §1, with “Four thousand” for “Five thousand”, “human mammary cancer BT-474” for “human T-cell lymphoma Karpas-299”, “using Dulbecco's Modified Eagle's Medium (DMEM)” for “using RPMI medium”, “for 24” for “for 5”

[4] = test system: human renal cancer OS-RC-2 cells; experiment: Growth inhibition test on human renal cancer OS-RC-2 cells (WST-1, % viability); conditions: test compound 10 μmol/L, 72 hours, cells without test compound = 100%
Procedure: as §1, with “One thousand” for “Five thousand”, “human renal cancer OS-RC-2” for “human T-cell lymphoma Karpas-299”, “using RPMI1640” for “using RPMI”, “for 24” for “for 5”, “spectrophotometer (Model 550;” for “spectrophotometer (SpectraMax 340PC384;”, “by Bio-Rad),” for “by Nihon Molecular Devices),”

Row | Compound | Viability of tumor cells (% viability), Human chronic myelocytic leukemia K562 cells [1] | Viability of tumor cells (% viability), Human T-cell lymphoma Karpas-299 cells [2] | Viability of tumor cells (% viability), Human mammary cancer BT-474 cells [3] | Viability of tumor cells (% viability), Human renal cancer OS-RC-2 cells [4]
1 | CCc1c(O)cc(O)c(C(=O)c2ccc(OC(C)C)cc2)c1CC(=O)N(CCO)CCOC [Compound 124] | 4% | 14% | 13% | 15%
2 | CCc1c(O)cc(O)c(C(=O)c2ccc(OC)cc2)c1CC(=O)N(CCO)Cc1ccco1 [Compound 69] | 4% | 14% | 13% | 16%
3 | CCc1c(O)cc(O)c(C(=O)c2ccc(OC)cc2)c1CC(=O)N(CCO)CCOC [Compound 33] | 4% | 14% | 13% | 18%
4 | CCc1c(O)cc(O)c(C(=O)c2ccc(OC)c(OC)c2)c1CC(=O)N(CCO)CCOC [Compound 56] | 5% | 14% | 13% | 18%
5 | CCc1c(O)cc(O)c(C(=O)c2ccc(OCCN3CCOCC3)c(OC)c2)c1CC(=O)N(CCOC)CCOC [Compound 125] | 4% | 15% | 14% | 20%
